Measurements published in ChEMBL document CHEMBL1201862, “PubChem BioAssay data set” (2004).
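A five-concentration, 48-hour dose response in 96-well plates underlies each endpoint, interpolated linearly between surrounding concentrations. GI50: concentration for 50% inhibition of growth.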 The source made the active and inactive calls. Cut-off read from the data, not from the text of the source: active = GI50 up to about 1.1 µM and inactive = higher.

Key:
Test in all cases: inhibition of tumour cell growth, NCI panel, 48 h
786-0 = test system: 786-0
A549 = test system: A549
ACHN = test system: ACHN
CAKI-1 = test system: CAKI-1
CCRF-CEM = test system: CCRF-CEM
COLO 205 = test system: COLO 205
DLD-1 = test system: DLD-1
DMS-114 = test system: DMS-114
DMS-273 = test system: DMS-273
EKVX = test system: EKVX
HCT-116 = test system: HCT-116
HCT-15 = test system: HCT-15
HL-60 = test system: HL-60
HOP-18 = test system: HOP-18
HOP-62 = test system: HOP-62
HOP-92 = test system: HOP-92
HT-29 = test system: HT-29
IGROV-1 = test system: IGROV-1
K562 = test system: K562
KM-20L2 = test system: KM-20L2
KM12 = test system: KM12
LOX IMVI = test system: LOX IMVI
LXFL 529 = test system: LXFL 529
M14 = test system: M14
M19-MEL = test system: M19-MEL
MOLT-4 = test system: MOLT-4
Malme-3M = test system: Malme-3M
NCI-H226 = test system: NCI-H226
NCI-H23 = test system: NCI-H23
NCI-H460 = test system: NCI-H460
NCI-H522 = test system: NCI-H522
OVCAR-3 = test system: OVCAR-3
OVCAR-4 = test system: OVCAR-4
OVCAR-5 = test system: OVCAR-5
OVCAR-8 = test system: OVCAR-8
RPMI-8226 = test system: RPMI-8226
RXF 393 = test system: RXF 393
RXF 631 = test system: RXF 631
SF-268 = test system: SF-268
SF-295 = test system: SF-295
SF-539 = test system: SF-539
SK-MEL-28 = test system: SK-MEL-28
SK-MEL-2 = test system: SK-MEL-2
SK-MEL-5 = test system: SK-MEL-5
SK-OV-3 = test system: SK-OV-3
SN12C = test system: SN12C
SNB-19 = test system: SNB-19
SNB-75 = test system: SNB-75
SNB-78 = test system: SNB-78
SR = test system: SR
SW-620 = test system: SW-620
TK-10 = test system: TK-10
U-251 = test system: U-251
UACC-257 = test system: UACC-257
UACC-62 = test system: UACC-62
UO-31 = test system: UO-31
XF498 = test system: XF498

Compound: Cc1noc2cccc(OCc3ccccc3)c12
- GI50 (786-0): 99.3 µM (inactive)
- GI50 (A549): 44.1 µM (inactive)
- GI50 (ACHN): 50.7 µM (inactive)
- GI50 (CAKI-1): 38.1 µM (inactive)
- GI50 (CCRF-CEM): 13.5 µM (inactive)
- GI50 (COLO 205): 52.1 µM (inactive)
- GI50 (DLD-1): 64.9 µM (inactive)
- GI50 (DMS-114): 29 µM (inactive)
- GI50 (DMS-273): 52 µM (inactive)
- GI50 (EKVX): 35.7 µM (inactive)
- GI50 (HCT-116): 48.1 µM (inactive)
- GI50 (HCT-15): 50.8 µM
- GI50 (HL-60): 17.3 µM (inactive)
- GI50 (HOP-18): > 100 µM (inactive)
- GI50 (HOP-62): > 100 µM (inactive)
- GI50 (HOP-92): 43.3 µM (inactive)
- GI50 (HT-29): 37.2 µM (inactive)
- GI50 (IGROV-1): 60.1 µM (inactive)
- GI50 (K562): 43 µM (inactive)
- GI50 (KM-20L2): 65.5 µM (inactive)
- GI50 (KM12): 91.2 µM (inactive)
- GI50 (LOX IMVI): 51.3 µM (inactive)
- GI50 (LXFL 529): 49 µM (inactive)
- GI50 (M14): 92.5 µM (inactive)
- GI50 (M19-MEL): 60.1 µM (inactive)
- GI50 (MOLT-4): 39.5 µM (inactive)
- GI50 (Malme-3M): > 100 µM (inactive)
- GI50 (NCI-H226): 46.5 µM (inactive)
- GI50 (NCI-H23): > 100 µM (inactive)
- GI50 (NCI-H460): > 100 µM (inactive)
- GI50 (NCI-H522): 13.2 µM (inactive)
- GI50 (OVCAR-3): 94.8 µM (inactive)
- GI50 (OVCAR-4): 82.8 µM (inactive)
- GI50 (OVCAR-5): 25.6 µM (inactive)
- GI50 (OVCAR-8): 67.1 µM (inactive)
- GI50 (RPMI-8226): 30.7 µM (inactive)
- GI50 (RXF 393): 30.8 µM (inactive)
- GI50 (RXF 631): 85.7 µM (inactive)
- GI50 (SF-268): > 100 µM (inactive)
- GI50 (SF-295): 72.4 µM (inactive)
- GI50 (SF-539): > 100 µM (inactive)
- GI50 (SK-MEL-28): > 100 µM (inactive)
- GI50 (SK-MEL-2): 23.8 µM (inactive)
- GI50 (SK-MEL-5): 17.1 µM (inactive)
- GI50 (SK-OV-3): > 100 µM (inactive)
- GI50 (SN12C): > 100 µM (inactive)
- GI50 (SNB-19): 91 µM (inactive)
- GI50 (SNB-75): 30.6 µM (inactive)
- GI50 (SNB-78): 80.5 µM (inactive)
- GI50 (SR): 34.6 µM (inactive)
- GI50 (SW-620): > 100 µM (inactive)
- GI50 (TK-10): 47 µM (inactive)
- GI50 (U-251): 93.8 µM (inactive)
- GI50 (UACC-257): 53.8 µM (inactive)
- GI50 (UACC-62): > 100 µM (inactive)
- GI50 (UO-31): 15 µM (inactive)
- GI50 (XF498): 56.9 µM (inactive)
